Like-named read-outs stand apart in the source and are kept apart here.
Legend:
[1] = system: carrageenin edema; experiment: Carrageenin edema at the hind foot of rats; assay type: in vivo, SD-strain rats; conditions: for inhibition in vivo at 200 mg/kg: Rattus norvegicus, po, 3 h, read-out: % Inhibition (carrageenin edema)
Procedure: The anti-inflammatory action of the compounds of the present invention were evaluated by measuring the inhibition against carrageenin edema as set forth below. Carrageenin edema at the hind foot of rats: Experimental method. SD-strain rats of body weights of around 150 grams were used, each group consisting of five rats. A solution (0.1 ml) of 0.5% carrageenin dissolved in physiological saline water was subcutaneously injected into the right hind foot pat of the rats and, one hour prior to the injection of carrageenin, 200 mg/kg of test compound was given per os. Foot volumes of the rats before the carrageenin treatment and those of three hours after the treatment were measured and the differences were compared with those of the control group to adopt as a target of the effect of the compounds.

[2] = system: SRS-A (slow reacting substance of anaphylaxis) contraction of ileum; experiment: Anti-SRS-A action using ileus of guinea pigs; assay type: cell-based, Hartley strain male guinea pigs; conditions: 5 min, guinea pig ileum, SRS-A 20 units, compound five minutes before; for inhibition at 1 µM: Cavia porcellus, 1/1000 mM, read-out: 1/1000 mM SRS-A Inhibition Ratio %
Procedure: (§1) The compounds of the present invention have been evaluated for their anti-allergenic action by passive cutaneous anaphylatic assay (PCA) in rats and by measuring the anti-SRS-A action using ileus of guinea pigs.
Anti-SRS-A action (An anti-acton against slow reacting substance of anaphylaxis).
Hartley strain male guinea pigs (300 to 350 grams body weight) are killed and 1.0 to 1.5 cm of ileum is immeidiately excised from ileocecal parts and is suspended in 10 ml of Tyrode solution (95% 02 -5% CO2 saturation) containing 10^-7 g/ml of atropine and 10^-6 g/ml of pyrilamine. SRS-A (20 units) (the amount of SRS-A showing the same contradiction as 5 ng of histamine is defined as 1 unit) prepared by using sensitized guinea pig lung is given to cause contraction there. Then antagonistic action of test compounds treated five minutes ago against the contraction is measured and recorded via isotonic transducer. [formula] in which A' is a height of contraction of SRS-A+test compound and A is that of SRS-A.

[3] = system: passive cutaneous anaphylaxis (DNP-As homocytotropic antiserum); experiment: passive cutaneous anaphylatic assay (PCA) in rats; assay type: in vivo, Wistar strain rats; conditions: 10 mg/kg orally, one hour before antigen; for inhibition in vivo at 10 mg/kg: Rattus norvegicus, po, 1 h, read-out: PCA Inhibition Ratio %
Procedure: as §1
(i) Antiserum abundant in homocytotropic antibody is prepared by the same method as Tada and Okumura did (cf. Journal of Immunology, vol. 106, page 1002, 1971). Thus, 1 mg (calculated as an amount of protein) of DNP-As (2,4-dinitrophenylcoupled ascaris extract) prepared by methods of Strejan and Campbell (Journal of Immunology, vol. 98, p. 893, 1967) and of Eisen (Journal of Amer. Chem. Soc., vol. 75, p 4593, 1953) and 1×10^10pertussis vaccine are administered to each paw of Wistar strain rats (180 to 200 grams body weights) by dividing the dose by four. Five days later, 0.5 mg of DNP-As is administered into muscle of back. Eight days later from the initial immunization, blood is taken from discending aorta under anesthetizing with ether, the resulting serum is stored at -80° and is melted before use.
(ii) Effect of tested compounds is investigated as follows:
Anti-serum obtained by th method (i) is diluted with physiological saline solution double by double successively and 0.05 ml of each diluted solution is administered into the back of Wistar strain rats (140 to 160 grams body weight) intradermally. After 72 hours, a solution of 2 mg (calculated as protein) of DNP-As and 2.5 mg of Evans Blue dissolved in 1 ml of physiological saline solution is administered intraveously at a dose of 5 ml/kg. After 30 minutes from the antigen solution administration, the animals are killed and the diameters of blue spots which appeared at the place where antiserum was administered were measured. The PCA test is conducted by the same method as already described using a diluted solutions of antiserum which always show 10 mm or more of spot diameters and the effect of the test compounds is judged. Thus antiserum diluted solutions are administered into two places in the back. Test compounds are administered orally at the dose of 10 mg/kg one hour before administration of the antigen solution. From the skin of reacted parts of killed animals, leaked or emitted dyestuff is extracted and the amount of the dyestuff is measured. The inhibition ratio is calculated by the following expression: [formula] in which A' is an amount of dyestuff in the group treated with the test compounds and A is that in the control group.

[4] = 200 mg/kg per os, one hour before carrageenin, foot volume three hours after

Compound: COC(=O)c1ccc2[nH]c(-c3cc(Cl)ccc3Cl)cc(=O)c2c1 [Example 39]
- inhibition in vivo at 200 mg/kg [1, 4]: 30%
- inhibition at 1 µM [2]: 66%
- inhibition in vivo at 10 mg/kg [3]: 24.8%

Compound: O=C(O)c1ccc2[nH]c(-c3ccc(Cl)c(Cl)c3)cc(=O)c2c1 [Example 38]
- inhibition in vivo at 200 mg/kg [1, 4]: 12.8%
- inhibition at 1 µM [2]: 20.5%
- inhibition in vivo at 10 mg/kg [3]: 20.4%

Compound: CCOC(=O)c1cccc2c(=O)cc(-c3ccccc3C)[nH]c12 [Example 104]
- inhibition in vivo at 200 mg/kg [1, 4]: 53.7%
- inhibition at 1 µM [2]: 19.8%
- inhibition in vivo at 10 mg/kg [3]: 10.4%

Compound: CCOC(=O)c1ccc2c(c1)C(=O)CC(c1ccccc1)=N2 [Example 4, Ethyl 2-phenyl-4-quinolone-6-carboxylate]
- inhibition in vivo at 200 mg/kg [1, 4]: 14.2%
- inhibition at 1 µM [2]: 27.5%
- inhibition in vivo at 10 mg/kg [3]: 25.7%

Compound: Cc1ccc(-c2cc(=O)c3cccc(C(=O)OCCO)c3[nH]2)c(C)c1 [Example 136]
- inhibition in vivo at 200 mg/kg [1, 4]: 26.9%
- inhibition at 1 µM [2]: 15.4%
- inhibition in vivo at 10 mg/kg [3]: 19.4%

Compound: CC(O)COC(=O)c1cccc2c(=O)cc(-c3ccccc3Cl)[nH]c12 (centres unmarked) [Example 125]
- inhibition in vivo at 200 mg/kg [1, 4]: 17.2%
- inhibition at 1 µM [2]: 15.6%
- inhibition in vivo at 10 mg/kg [3]: 10.4%

Compound: CCOC(=O)c1cccc2c(=O)cc(-c3ccc(C(C)C)cc3)[nH]c12 [Example 106]
- inhibition in vivo at 200 mg/kg [1, 4]: 50.9%
- inhibition at 1 µM [2]: 44%
- inhibition in vivo at 10 mg/kg [3]: 33.4%

Compound: CCOC(=O)CCCOC(=O)c1cccc2c(=O)cc(-c3ccccc3Cl)[nH]c12 [Example 124]
- inhibition in vivo at 200 mg/kg [1, 4]: 14.5%

Compound: CCOC(=O)c1cccc2c(=O)cc(-c3ccc(OC)c(OC)c3)[nH]c12 [Example 98]
- inhibition in vivo at 200 mg/kg [1, 4]: 16.1%
- inhibition at 1 µM [2]: 20.4%
- inhibition in vivo at 10 mg/kg [3]: 16.4%

Compound: CCOCCOC(=O)c1cccc2c(=O)cc(-c3ccccc3Cl)[nH]c12 [Example 120]
- inhibition in vivo at 200 mg/kg [1, 4]: 29.4%
- inhibition at 1 µM [2]: 20.3%
- inhibition in vivo at 10 mg/kg [3]: 10.7%

Compound: COC(=O)c1ccc2[nH]c(-c3ccco3)cc(=O)c2c1 [Example 76]
- inhibition in vivo at 200 mg/kg [1, 4]: 14.5%
- inhibition at 1 µM [2]: 25.6%
- inhibition in vivo at 10 mg/kg [3]: 21.3%

Compound: O=C(OCCO)c1cccc2c(=O)cc(-c3ccccc3F)[nH]c12 [Example 131]
- inhibition in vivo at 200 mg/kg [1, 4]: 29.9%
- inhibition at 1 µM [2]: 14%
- inhibition in vivo at 10 mg/kg [3]: 28.5%

Compound: Ethyl 2-phenyl-4-quinolone-8-carboxylate [Example 80]
- % Inhibition (carrageenin edema) [1, 4]: 14.7%
- 1/1000 mM SRS-A Inhibition Ratio % [2]: 52.4%
- PCA Inhibition Ratio % [3]: 20.9%

Compound: COC(=O)c1ccc2[nH]c(-c3ccc(OC)cc3OC)cc(=O)c2c1 [Example 64]
- inhibition in vivo at 200 mg/kg [1, 4]: 10.1%
- inhibition at 1 µM [2]: 48.2%
- inhibition in vivo at 10 mg/kg [3]: 17.7%

Compound: COC(=O)c1ccc2c(c1)C(=O)CC(c1ccccc1)=N2 [Example 1, Methyl 2-phenyl-4-quinolone-6-carboxylate]
- inhibition in vivo at 200 mg/kg [1, 4]: 34%
- inhibition at 1 µM [2]: 77%
- inhibition in vivo at 10 mg/kg [3]: 25.4%

Compound: CC(C)COC(=O)c1cccc2c(=O)cc(-c3ccccc3Cl)[nH]c12 [Example 112]
- inhibition in vivo at 200 mg/kg [1, 4]: 10%
- inhibition at 1 µM [2]: 25%
- inhibition in vivo at 10 mg/kg [3]: 24.3%

Compound: CCOC(=O)c1cccc2c(=O)cc(-c3ccc(OC)cc3OC)[nH]c12 [Example 108]
- inhibition in vivo at 200 mg/kg [1, 4]: 51%
- inhibition at 1 µM [2]: 95%
- inhibition in vivo at 10 mg/kg [3]: 14%

Compound: CCOC(=O)c1cccc2c(=O)cc(-c3cccc(Cl)c3)[nH]c12 [Example 86]
- inhibition in vivo at 200 mg/kg [1, 4]: 29.5%
- inhibition at 1 µM [2]: 62.5%
- inhibition in vivo at 10 mg/kg [3]: 20.1%

Compound: CCOC(=O)CC(=O)COC(=O)c1cccc2c(=O)cc(-c3ccccc3Cl)[nH]c12 [Example 130]
- inhibition in vivo at 200 mg/kg [1, 4]: 18.3%
- inhibition at 1 µM [2]: 12.7%
- inhibition in vivo at 10 mg/kg [3]: 20.3%

Compound: CC(=O)OCCOC(=O)c1cccc2c(=O)cc(-c3ccccc3Cl)[nH]c12 [Example 118]
- inhibition in vivo at 200 mg/kg [1, 4]: 27.9%
- inhibition at 1 µM [2]: 64.2%
- inhibition in vivo at 10 mg/kg [3]: 41.5%

Compound: C=CCOC(=O)c1cccc2c1N=C(c1ccccc1Cl)CC2=O [Example 110, Allyl 2-(2-chlorophenyl)-4-quinolone-8-carboxylate]
- inhibition in vivo at 200 mg/kg [1, 4]: 19.2%
- inhibition at 1 µM [2]: 18.9%
- inhibition in vivo at 10 mg/kg [3]: 17.7%

Compound: COc1ccc(-c2cc(=O)c3cccc(C(=O)O)c3[nH]2)cc1OC [Example 99]
- inhibition in vivo at 200 mg/kg [1, 4]: 36.8%
- inhibition at 1 µM [2]: 21.7%
- inhibition in vivo at 10 mg/kg [3]: 13.2%

Compound: O=C(O)c1ccc2[nH]c(-c3ccccc3Cl)cc(=O)c2c1 [Example 22]
- inhibition in vivo at 200 mg/kg [1, 4]: 14.8%
- inhibition at 1 µM [2]: 26.4%
- inhibition in vivo at 10 mg/kg [3]: 35.8%

Compound: O=C1CC(c2ccccc2Cl)=Nc2c1cccc2C(=O)OCCO [Example 109, Beta-Hydroxyethyl 2-(2-chlorophenyl)-4-quinolone-8-carboxylate]
- inhibition in vivo at 200 mg/kg [1, 4]: 30.7%
- inhibition at 1 µM [2]: 100%
- inhibition in vivo at 10 mg/kg [3]: 29.2%

Compound: COC(=O)c1ccc2[nH]c(-c3ccccc3C)cc(=O)c2c1 [Example 41]
- inhibition in vivo at 200 mg/kg [1, 4]: 18.9%
- inhibition at 1 µM [2]: 29.1%
- inhibition in vivo at 10 mg/kg [3]: 29.5%

Compound: CC(=O)Oc1ccccc1C(=O)O [Acetylsalicylic Acid, reference compound]
- inhibition in vivo at 200 mg/kg [1]: 31.6%

Compound: COC(=O)c1ccc2[nH]c(-c3ccncc3)cc(=O)c2c1 [Example 70]
- inhibition in vivo at 200 mg/kg [1, 4]: 17.1%
- inhibition at 1 µM [2]: 21.4%
- inhibition in vivo at 10 mg/kg [3]: 22.3%

Compound: O=C(OCCO)c1cccc2c(=O)cc(-c3ccc(Cl)cc3)[nH]c12 [Example 133]
- inhibition in vivo at 200 mg/kg [1, 4]: 10%
- inhibition at 1 µM [2]: 21.3%
- inhibition in vivo at 10 mg/kg [3]: 17%

Compound: COC(=O)c1ccc2[nH]c(-c3ccccc3F)cc(=O)c2c1 [Example 26]
- inhibition at 1 µM [2]: 38.5%
- inhibition in vivo at 10 mg/kg [3]: 20.6%

Compound: O=C(O)c1cccc2c(=O)cc(-c3ccc(Cl)c(Cl)c3)[nH]c12 [Example 91]
- inhibition at 1 µM [2]: 24.2%
- inhibition in vivo at 10 mg/kg [3]: 22.7%

Compound: CCOc1ccccc1-c1cc(=O)c2cc(C(=O)OC)ccc2[nH]1 [Example 58]
- inhibition at 1 µM [2]: 63%
- inhibition in vivo at 10 mg/kg [3]: 23.1%

Source: patent US4711898A, “4-quinolone derivatives having anti-inflammatory, anti-allergic, antitussive, expectorant and antithrombotic activity” (Nippon Shinyaku Co., Ltd., priority 1982, dated 1987)
